Assay results from patent US20210363496A1, “METHOD FOR OBTAINING ARTIFICIAL NEUROMUSCULAR JUNCTION FROM PLURIPOTENT STEM CELLS” (KYOTO UNIVERSITY, priority 2017, published 2021).
“Also recorded” adds a separate entry of the source.

Experiments:
Assay type in all cases: cell-based, human
[1] = tested on: in vitro hNMJ culture (myotubes); assay: Calcium imaging of in vitro hNMJ; conditions: day 20 of NMJ differentiation, Ca imaging at five ROIs
Method: MyoD-201B7 cells were seeded at a density of 2.2×10^4 cells/well and differentiated into NMJs in a Costar 96-well black-wall/clear-bottom plate. On day 20, the growth medium was removed, and 100 μL Fluo-8 recording medium was added to the cells at 37° C. for 1 hour. The cells were washed twice with PBS and then imaged on In Cell Analyzer 2000. The fluorescence intensity was expressed as the F/F0 ratio.
MyoD-201B7 cells were seeded onto a Matrigel-coated, 96-well black-wall/clear-bottom plate at a density of 2.2×10^4 cells/well. Half of the medium in each well was exchanged every day until the cultures started contracting. The growth medium was removed, and cells were loaded with 100 μL Fluo-8 recording medium at 37° C. for 1 hour. The cells were washed twice with PBS and then the differentiation medium was added to the wells. Ca oscillations were monitored with the FDSS microplate reader, data points were collected at 1-minute intervals, and the data points were analyzed using FDSS software for frequency and amplitude quantification.

[2] = tested on: in vitro hNMJ culture (myotubes); assay: Motion vector analysis of myotube contraction in in vitro hNMJ; conditions: day 20 of NMJ differentiation
Method: (§1) MyoD-201B7 strain was subjected to myogenic differentiation according to the procedure described in Tanaka et al., PLOS ONE 2013. Specifically, MyoD-201B7 cells were seeded on a Matrigel-coated plate, and myogenic differentiation was induced by adding 1 μg/mL of doxycycline to myogenic differentiation medium (10% KSR+αMEM). Ten days after the addition of doxycycline, neural differentiation was induced by changing the medium to Neurobasal medium supplemented with neurotrophic factors (BDNF, GDNF, and NT3; 10 ng/ml each, R&D Systems). The medium was then replaced every 3 to 4 days to continue culturing.
Using α7s ILCE-7S (Sony Corporation), phase-contrast images using a red-filtered optical source and fluorescence (Fluo8, green) were continuously captured at 15 fps. Using the SI8000 Cell Motion Imaging System (Sony Corporation), which provides motion vector analysis based on the block matching method, motion quantification with the red-separated images in regions of interest (ROIs) and brightness analysis with the green-separated images were performed.
Both moving image capture and motion analysis were performed at 38 fps using the SI8000 Cell Motion Imaging System (Sony Corporation).

in vitro hNMJ culture = assay: Contribution of agrin to the in vitro NMJ system (NMJ area, TEM); conditions: long-term culture
Method: as §1
NMJ cultures were pre-fixed in 2% paraformaldehyde and 2% glutaraldehyde in 0.1 M phosphate buffer (pH 7.4) at 4° C. overnight. Post-fixation was done in 1% osmium tetroxide solution for 1 hour at room temperature. The samples were dehydrated in ethanol (30%, 50%, 70%, 90%, 95%, and 100%) and embedded in Epon resin. Ultrathin sections (80 nm) were cut and stained with uranyl acetate and alkaline lead citrate. The specimens were examined with a transmission electron microscope (H-7650, Hitachi, Ltd.).
Image analysis and quantification were performed by MetaMorph software (Molecular Devices, LLC. USA).

[3] = tested on: hNMJ culture expressing ChR2-EYFP; assay: Motion analysis of in vitro hNMJ culture by photoactivation (ChR2-EYFP); conditions: day 100 of NMJ differentiation
Method: The plasmid deposited at Addgene by Karl Deisseroth was purchased and used as a plasmid containing a photoactivation domain (pLenti-Synapsin-hChR2 (H134R)-EYFP-WPRE, Addgene plasmid number 20945). The lentivirus transduction system (ViraPower hiperform lentivirus expression system, Invitrogen) was used to transduce the target gene into neural cells. NMJ cultures were treated with virus-containing medium at 37° C. for 48 hours with 5% CO2. After virus infection, the medium was removed and the Neurobasal medium was added for target gene expression. The medium was changed every 3 to 4 days. EYFP expression was examined by confocal microscopy with proper optical settings. Photoactivation was performed with at 488-nm laser wavelength. In addition to EYFP signals, bright-field images were captured simultaneously for muscle movement analysis.

Molecule: [Ca+2] [Ca^2+, calcium]
- excitation of myotubes (transient Ca2+ elevation) [1]: enhanced

Molecule: O=C1CN(/N=C/c2ccc(-c3ccc([N+](=O)[O-])cc3)o2)C(O)=N1 [dantrolene]
- spontaneous synchronized contraction-like movement of myotubes [2]: inhibited

Molecule: agrin
- area of the NMJ (ratio of NMJ region) (in vitro hNMJ culture): increased
- morphology of myotubes and axon terminals by TEM (in vitro hNMJ culture): Myotube was well confined at fold of junction that bounds axon terminal

Molecule: curare
- excitation of myotubes (transient Ca2+ elevation) [1]: reduced; also recorded: stopped
- muscle contraction triggered by blue light (488 nm) [3]: inhibited
